The record followed here is patent US7427612B2, “Benzoyl-piperazine derivatives” (Hoffmann-La Roche Inc., priority 2003, dated 2008).

The assay concerns the target T1, mGlyT-1b (Mus musculus, UniProt P28571).
T1 construct: host or cells: Flp-in CHO cells, stably transfected
T1 sequence (P28571 1-651 isoform P28571-2): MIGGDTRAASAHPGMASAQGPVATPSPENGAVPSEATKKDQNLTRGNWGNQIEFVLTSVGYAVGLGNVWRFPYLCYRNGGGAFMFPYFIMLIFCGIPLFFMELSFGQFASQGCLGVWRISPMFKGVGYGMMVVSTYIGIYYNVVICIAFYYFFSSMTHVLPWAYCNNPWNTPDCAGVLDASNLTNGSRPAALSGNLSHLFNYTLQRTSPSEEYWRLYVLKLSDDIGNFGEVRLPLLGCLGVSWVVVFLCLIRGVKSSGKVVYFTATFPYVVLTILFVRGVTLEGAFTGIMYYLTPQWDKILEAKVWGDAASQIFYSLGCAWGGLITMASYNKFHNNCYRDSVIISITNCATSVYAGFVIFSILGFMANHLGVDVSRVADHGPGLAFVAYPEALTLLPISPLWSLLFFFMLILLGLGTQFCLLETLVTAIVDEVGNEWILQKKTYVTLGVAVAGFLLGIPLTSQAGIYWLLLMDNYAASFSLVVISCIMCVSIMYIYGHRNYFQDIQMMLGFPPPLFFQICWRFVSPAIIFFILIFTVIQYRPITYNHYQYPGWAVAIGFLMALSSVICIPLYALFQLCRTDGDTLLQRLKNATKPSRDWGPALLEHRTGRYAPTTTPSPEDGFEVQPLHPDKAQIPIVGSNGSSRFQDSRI
Briefly: Glycine uptake inhibition assay (mGlyT-1b). Format: cell-based. The settings on record: inhibition of [3H]-glycine uptake in Flp-in-CHO cells stably transfected with mGlyT1b cDNA; 20 min at 22° C. As for the experimental part: DMEM complete medium: Nutrient mixture F-12 (Gibco Life-technologies), fetal bovine serum (FBS) 5%, (Gibco life technologies), Penicillin/Streptomycin 1% (Gibco life technologies), Hygromycin 0.6 mg/ml (Gibco life technologies), Glutamine 1 mM Gibco life technologies)
Uptake buffer (UB): 150 mM NaCl, 10 mM Hepes-Tris, pH 7.4, 1 mM CaCl2, 2.5 mM KCl, 2.5 mM MgSO4, 10 mM (+) D-glucose. Flp-in™—CHO (Invitrogen Cat n° R758-07)cells stably transfected with mGlyT1b cDNA.
Glycine uptake inhibition assay (mGlyT-1b)
On Day 1 mammallian cells, (Flp-in™—CHO), transfected with mGlyT-1b cDNA, were plated at the density of 40,000 cells/well in complete F-12 medium, without hygromycin in 96-well culture plates. On day 2, the medium was aspirated and the cells were washed twice with uptake buffer (UB). The cells were then incubated for 20 min at 22° C. with either (i) no potential competitor, (ii) 10 mM non-radioactive glycine, (iii) a concentration of a potential inhibitor. A range of concentrations of the potential inhibitor was used to generate data for calculating the concentration of inhibitor resulting in 50% of the effect (e.g. IC50, the concentration of the competitor inhibiting glycine uptake of 50%). A solution was then immediately added containing [^3H]-glycine 60 nM (11-16 Ci/mmol) and 25 μM non-radioactive glycine. The plates were incubated with gentle shaking and the reaction was stopped by aspiration of the mixture and washing (three times) with ice-cold UB. The cells were lysed with scintillation liquid, shaken 3 hours and the radioactivity in the cells was counted using a scintillation counter.
One may read the IC50 as the midpoint of a concentration-inhibition curve. A higher IC50 goes with lower potency. Consider `CNS(=O)(=O)c1ccc(N2CCOCC2)c(C(=O)N2CCN(c3ccc(C(F)(F)F)c(F)c3)CC2)c1` [Example 264, 3-[4-(3-Fluoro-4-trifluoro-methyl-phenyl)-piperazine-1-carbonyl]-N-methyl-4-morpholin-4-yl-benzenesulfonamide], for which the IC50 amounted to 12 nM.

`CS(=O)(=O)c1ccc(N2CCCCC2)c(C(=O)N2CCN(c3ccc(C#N)cc3F)CC2)c1` [Example 216, 3-Fluoro-4-[4-(5-methanesulfonyl-2-piperidin-1-yl-benzoyl)-piperazin-1-yl]-benzonitrile] displayed an IC50 of 12 nM.

Molecule `CC(=O)c1ccc(N2CCN(C(=O)c3cc([N+](=O)[O-])ccc3N3CC=CC3)CC2)c(F)c1` [Example 41, 1-(4-{4-[2-(2,5-Dihydro-pyrrol-1-yl)-5-nitro-benzoyl]-piperazin-1-yl}-3-fluoro-phenyl)-ethanone] showed an IC50 of 14 nM.

Molecule `CC(=O)c1ccc(N2CCN(C(=O)c3cc([N+](=O)[O-])ccc3NC(C)C)CC2)c(F)c1` [Example 18, 1-{3-Fluoro-4-[4-(2-isopropylamino-5-nitro-benzoyl)-piperazin-1-yl]-phenyl}-ethanone] came in with an IC50 of 2.5 nM.

`C=CCN(C)c1ccc([N+](=O)[O-])cc1C(=O)N1CCN(c2ccc(C(C)=O)cc2F)CC1` [Example 43, 1-(4-{4-[2-(Allyl-methyl-amino)-5-nitro-benzoyl]-piperazin-1-yl}-3-fluoro-phenyl)-ethanone] had an IC50 of 9 nM.

`CNS(=O)(=O)c1ccc(N2CCCCC2)c(C(=O)N2CCN(c3ccc(C#N)cc3F)CC2)c1` [Example 247, 3-[4-(4-Cyano-2-fluoro-phenyl)-piperazine-1-carbonyl]-N-methyl-4-piperidin-1-yl-benzene-sulfonamide] registered an IC50 of 14 nM.

With `CC(=O)c1ccc(N2CCN(C(=O)c3cc([N+](=O)[O-])ccc3NC3CCCC3)CC2)c(F)c1` [Example 21, 1-{4-[4-(2-Cyclopentylamino-5-nitro-benzoyl)-piperazin-1-yl]-3-fluoro-phenyl}-ethanone], the midpoint of inhibition, the IC50, lay at 2.3 nM.

In turn, `CNS(=O)(=O)c1ccc(N2CCCCC2)c(C(=O)N2CCN(c3ccc(C(C)=O)cc3F)CC2)c1` [Example 245, 3-[4-(4-Acetyl-2-fluoro-phenyl)-piperazine-1-carbonyl]-N-methyl-4-piperidin-1-yl-benzene-sulfonamide] returned an IC50 of 18 nM.

The molecule `CC(=O)c1ccc(N2CCN(C(=O)c3cc([N+](=O)[O-])ccc3N3CCCC(O)C3)CC2)c(F)c1` (centres unmarked) [Example 45, 1-(3-Fluoro-4-{4-[2-(3-hydroxy-piperidin-1-yl)-5-nitro-benzoyl]-piperazin-1-yl}-phenyl)-ethanone] showed an IC50 of 19 nM.

`CC(=O)c1ccc(N2CCN(C(=O)c3cc([N+](=O)[O-])ccc3N3CCCCC3)CC2)c(F)c1` [Example 27, 1-{3-Fluoro-4-[4-(5-nitro-2-piperidin-1-yl-benzoyl)-piperazin-1-yl]-phenyl}-ethanone] gave an IC50 of 1.2 nM.

Molecule `CC(=O)c1ccc(N2CCN(C(=O)c3cc([N+](=O)[O-])ccc3N3CCOCC3)CC2)c(F)c1` [Example 1, 1-{4-[4-(2-Morpholin-4-yl-5-nitro-benzoyl)-piperazin-1-yl]-3-fluoro-phenyl}-ethanone] had an IC50 of 15 nM.

As to `CC(=O)c1ccc(N2CCN(C(=O)c3cc([N+](=O)[O-])ccc3NC3CCCCC3)CC2)c(F)c1` [Example 6, 1-{4-[4-(2-Cyclohexylamino-5-nitro-benzoyl)-piperazin-1-yl]-3-fluoro-phenyl}-ethanone], the IC50 came to 10 nM.

Molecule `N#Cc1cc(C(F)(F)F)ccc1N1CCN(C(=O)c2cc([N+](=O)[O-])ccc2N2CCOCC2)CC1` [Example 186, 2-[4-(2-Morpholin-4-yl-5-nitro-benzoyl)-piperazin-1-yl]-5-trifluoromethyl-benzonitrile] came in with an IC50 of 15 nM.

As to `CC(=O)c1ccc(N2CCN(C(=O)c3cc([N+](=O)[O-])ccc3N3CCCC3)CC2)c(F)c1` [Example 16, 1-{3-Fluoro-4-[4-(5-nitro-2-pyrrolidin-1-yl-benzoyl)-piperazin-1-yl]-phenyl}-ethanone], half-maximal inhibition (IC50) required 12 nM.

On to `CC(=O)c1ccc(N2CCN(C(=O)c3cc([N+](=O)[O-])ccc3N3CCC(CO)C3)CC2)c(F)c1` (racemic) [Example 175, 1-(3-Fluoro-4-{4-[2-(3-hydroxymethyl-pyrrolidin-1-yl)-5-nitro-benzoyl]-piperazin-1-yl}-phenyl)-ethanone], for which the midpoint of inhibition, the IC50, lay at 9.7 nM.

`CC(=O)c1ccc(N2CCN(C(=O)c3cc([N+](=O)[O-])ccc3N3CCC(C)CC3)CC2)c(F)c1` [Example 36, 1-(3-Fluoro-4-{4-[2-(4-methyl-piperidin-1-yl)-5-nitro-benzoyl]-piperazin-1-yl}-phenyl)-ethanone] came in with an IC50 of 14 nM.

Consider `CNS(=O)(=O)c1ccc(N2CCOCC2)c(C(=O)N2CCN(c3ccc(C(F)(F)F)cc3F)CC2)c1` [Example 263, 3-[4-(2-Fluoro-4-trifluoro-methyl-phenyl)-piperazine-1-carbonyl]-N-methyl-4-morpholin-4-yl-benzene-sulfonamide], for which the IC50 was found to be 10 nM.
